Experimental findings from PMC9821843, “Powerful Potential of Polyfluoroalkyl-Containing 4-Arylhydrazinylidenepyrazol-3-ones for Pharmaceuticals” (Molecules, 2022) are described below.

In brackets after ≈: the same amount, converted by molar mass. Where two headings read alike, the source gives them in different places. Some results are limits rather than exact numbers.

Broadly, the IC50 is the midpoint of a concentration-inhibition curve. By inhibition is commonly meant the relative decrease from the control value, in per cent. By MIC is commonly meant the lowest concentration that inhibits growth of the organism.

One series relates to HeLa tumor cell line. As to the kind of experiment: Cytotoxicity against HeLa cells (MTT assay). In kind it is cell-based, human. The note with it: Homo sapiens, HeLa, 72 h, read-out: IC50, HeLa. As to the method:
(§1) Cytotoxicity of compounds was evaluated using a culture of human dermal fibroblasts, which were isolated in the Laboratory of Cell Cultures of the Institute of Medical Cell Technologies, Ekaterinburg, Russia and a HeLa tumor cell line obtained at the shared research facility «Vertebrate cell culture collection» of the Institute of Cytology of the Russian Academy of Sciences, St. Petersburg, Russia. Cells were seeded in 96-well plates in the inoculum dose of 2 × 10^5 cells/mL and cultured for 24 h in DMEM, with 1% glutamine in the presence of 10% fetal bovine serum and gentamicin (50 mg/L) at 37 °C, with humidified atmosphere of 5% CO2. Then compounds, which were dissolved in DMSO, were added to the wells at the final concentrations of 10^–7, 10^–6, 10^–5 and 10^–4 M. The cells were incubated with compounds for 72 h, after which cell viability was assessed using the standard MTT assay. The assay was carried out in four replicates with negative (culture medium), positive (solution of the cytotoxic drug camptothecin at a concentration of 3 mM) controls and the solvent control (DMSO). The results of the MTT assay were evaluated on a Tecan Infinite M200 PRO (Tecan Austria GmbH, Grödig, Austria) plate spectrophotometer by comparing the optical density of a formazan solution at 570 nm in the assay and control wells. The half maximal inhibitory concentrations (IC50) were calculated by AAT Bioquest-calculator (https://www.aatbio.com/tools/ic50-calculator (accessed on 14 November 2022)).
A general note: Tetrazolium assays rely on reduction of a dye to a coloured formazan, in cell work by metabolically active cells.

In a further series the test system is human dermal fibroblasts. The series can be described thus: Cytotoxicity against human dermal fibroblasts (MTT assay). In kind it is cell-based. As to conditions: Fibroblast, 72 h, read-out: IC50, Human Dermal Fibroblasts. As to the method:
as §1

In series [1] the target is porcine liver carboxylesterase (CES, EC 3.1.1.1) (Sus scrofa, UniProt Q29550). The series can be described thus: Inhibition of porcine liver carboxylesterase (4-NPA colorimetric assay). In kind it is biochemical. As to conditions: 20 µM; n.a. = inactive at 20 µM; mean ± SEM, n = 3. From the text: (§2) The following enzymes were purchased from Sigma-Aldrich (Saint Louis, MO, USA): porcine liver carboxylesterase (CES, EC 3.1.1.1), human erythrocyte acetylcholinesterase (AChE, EC 3.1.1.7) and equine serum butyrylcholinesterase (BChE, EC 3.1.1.8). Substrates for CES, AChE and BChE were 4-nitrophenyl acetate (4-NPA), acetylthiocholine iodide (ATCh) and butyrylthiocholine iodide (BTCh), respectively, and the colorimetric reagent for the AChE and BChE assays was 5,5’-dithio-bis-(2-nitrobenzoic acid) (DTNB) (Sigma-Aldrich). All the kinetic experiments were performed under standard conditions, according to the protocol of IPAC RAS for a reversible inhibitors study.
Sequence of porcine liver carboxylesterase (CES, EC 3.1.1.1) (Q29550 19-566): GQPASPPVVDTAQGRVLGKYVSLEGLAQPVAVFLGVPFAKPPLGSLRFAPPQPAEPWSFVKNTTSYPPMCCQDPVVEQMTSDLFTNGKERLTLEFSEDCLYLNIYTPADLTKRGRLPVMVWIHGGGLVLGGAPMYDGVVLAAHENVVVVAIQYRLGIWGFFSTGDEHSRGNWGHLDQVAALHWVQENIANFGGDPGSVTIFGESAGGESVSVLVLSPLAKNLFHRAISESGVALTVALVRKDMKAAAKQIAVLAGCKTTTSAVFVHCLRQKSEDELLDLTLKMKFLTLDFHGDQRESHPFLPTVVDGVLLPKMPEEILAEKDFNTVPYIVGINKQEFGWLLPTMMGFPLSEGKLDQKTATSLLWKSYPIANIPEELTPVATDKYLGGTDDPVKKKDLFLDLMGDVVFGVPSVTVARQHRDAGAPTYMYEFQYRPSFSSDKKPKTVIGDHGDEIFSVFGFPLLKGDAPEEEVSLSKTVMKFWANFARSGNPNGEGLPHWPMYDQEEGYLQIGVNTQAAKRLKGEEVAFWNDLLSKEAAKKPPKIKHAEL
The CES (porcine liver) activity was assessed colorimetrically in 0.1 M K/Na phosphate buffer pH 8.0, 25 °C, by measuring the absorbance of 4-nitrophenol at 405 nm. Final enzyme and substrate (4-NPA) concentrations were 0.02 unit/mL and 1 mM, respectively. Reagent blanks included all constituents except enzyme.
Test compounds were dissolved in DMSO. Reaction mixtures contained a final DMSO concentration of 2% (v/v). Enzyme inhibition was first assessed at a single concentration of 20 µM for each compound after a 5 min incubation at 25 °C in three separate experiments. […] Substrate was then added and residual enzyme activity relative to an inhibitor-free control was measured using a Bio-Rad Benchmark Plus microplate reader (Marnes-la-Coquette, France).
Measurements were performed in a Bio-Rad Benchmark Plus microplate reader. Each experiment was performed in triplicate. Plots, linear regressions and values of IC50, were determined using Origin 6.1 for Windows, OriginLab (Northampton, MA, USA). Results were calculated using GraphPad Prism version 6.05 for Windows, GraphPad Software (La Jolla, CA, USA) and presented as mean ± SEM.

The target of series [2] is T1, human erythrocyte acetylcholinesterase (AChE, EC 3.1.1.7) (Homo sapiens, UniProt P22303).
T1 construct: human erythrocyte acetylcholinesterase (AChE, EC 3.1.1.7); purchased Sigma-Aldrich (Saint Louis, MO, USA); host or cells: human erythrocytes
T1 sequence (P22303 32-617 isoform P22303-2 limits assumed): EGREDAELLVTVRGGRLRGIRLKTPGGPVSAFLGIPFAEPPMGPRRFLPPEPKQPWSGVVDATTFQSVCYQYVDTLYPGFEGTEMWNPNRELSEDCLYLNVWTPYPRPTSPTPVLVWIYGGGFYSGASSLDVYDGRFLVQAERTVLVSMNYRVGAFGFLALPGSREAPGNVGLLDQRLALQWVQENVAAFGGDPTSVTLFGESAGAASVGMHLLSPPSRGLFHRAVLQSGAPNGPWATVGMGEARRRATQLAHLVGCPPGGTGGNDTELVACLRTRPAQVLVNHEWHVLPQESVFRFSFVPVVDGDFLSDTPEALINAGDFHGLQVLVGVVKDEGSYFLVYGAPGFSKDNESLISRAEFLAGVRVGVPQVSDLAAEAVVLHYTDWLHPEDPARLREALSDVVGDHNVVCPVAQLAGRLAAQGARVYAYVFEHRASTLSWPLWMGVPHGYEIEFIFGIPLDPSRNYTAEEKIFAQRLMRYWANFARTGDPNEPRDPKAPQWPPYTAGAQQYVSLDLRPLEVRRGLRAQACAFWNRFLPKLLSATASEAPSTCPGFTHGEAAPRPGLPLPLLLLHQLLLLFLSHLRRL
The series can be described thus: Inhibition of human erythrocyte acetylcholinesterase (Ellman assay). In kind it is biochemical. As to conditions: read-out: Inhibition % at 20 µM, Human AChE.
Description: as §2
Reagent blanks consisted of reaction mixtures without enzyme to assess non-enzymatic hydrolysis of substrates.
Test compounds were dissolved in DMSO. Reaction mixtures contained a final DMSO concentration of 2% (v/v). […] Measurements were performed in a Bio-Rad Benchmark Plus microplate reader. Each experiment was performed in triplicate. Plots, linear regressions and values of IC50, were determined using Origin 6.1 for Windows, OriginLab (Northampton, MA, USA).
In general terms: DTNB colorimetry detects thiols as they appear.

Series [3] deals with T2, equine serum butyrylcholinesterase (BChE, EC 3.1.1.8) (Equus caballus, UniProt P81908).
T2 construct: equine serum butyrylcholinesterase (BChE, EC 3.1.1.8); purchased Sigma-Aldrich (Saint Louis, MO, USA); host or cells: equine serum
T2 sequence (P81908 whole entry): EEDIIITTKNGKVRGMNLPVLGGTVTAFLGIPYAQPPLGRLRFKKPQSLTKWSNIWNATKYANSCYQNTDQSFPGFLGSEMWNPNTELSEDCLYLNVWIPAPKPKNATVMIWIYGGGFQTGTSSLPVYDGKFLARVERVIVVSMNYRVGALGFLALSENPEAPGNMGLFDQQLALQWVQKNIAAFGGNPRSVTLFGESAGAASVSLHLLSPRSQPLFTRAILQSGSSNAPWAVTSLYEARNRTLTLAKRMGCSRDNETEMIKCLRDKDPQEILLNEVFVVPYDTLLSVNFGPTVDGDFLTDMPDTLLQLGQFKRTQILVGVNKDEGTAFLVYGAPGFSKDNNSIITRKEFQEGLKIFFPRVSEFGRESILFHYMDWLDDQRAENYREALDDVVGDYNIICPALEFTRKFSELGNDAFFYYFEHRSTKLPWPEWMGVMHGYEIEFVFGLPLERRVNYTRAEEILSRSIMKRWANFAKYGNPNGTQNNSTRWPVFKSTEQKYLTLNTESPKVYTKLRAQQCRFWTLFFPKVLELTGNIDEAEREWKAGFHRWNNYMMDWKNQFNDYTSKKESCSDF
As to the kind of experiment: Inhibition of equine serum butyrylcholinesterase (Ellman assay). In kind it is biochemical. The note with it: read-out: Inhibition % at 20 µM, Equine BChE. In outline:
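Ellman colorimetric assay with 0.02 unit/mL BChE, 1 mM butyrylthiocholine iodide and 0.33 mM DTNB, 2% (v/v) DMSO final; substrate added after enzyme-compound mixing. Residual activity versus inhibitor-free control, blanks without enzyme; triplicates, IC50 by linear regression.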

Series [4] is described as follows: Oxygen radical absorbance capacity (ORAC-FL) assay. As to conditions: n.a. = inactive; i.t.s. = interferes with test system. In outline: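 Fluorescein oxidative degradation by the peroxyl radical generator AAPH is monitored in the presence of test compound, a HAT-based read-out. Activity is expressed relative to Trolox as reference antioxidant.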
Series [5] deals with Neisseria gonorrhoeae ATCC 49226/NCTC 12700. As to the kind of experiment: Antibacterial activity against Neisseria gonorrhoeae. In kind it is cell-based. As to conditions: read-out: MIC against Neisseria gonorrhoeae.
Series [6] can be described thus: Acute toxicity evaluation in mice (ip). The note with it: CD-1, mouse, in vivo, 300 mg/kg. On the procedure: The toxicity evaluation was performed on CD-1 mice. […] The tested compounds in 1% starch mucilage were injected intraperitoneally into three mice. Then, animals were observed during 14 days, the number of deaths was counted and % of viability calculated.

Another series concerns Sprague-Dawley (SD) rats. The series can be described thus: Hot plate test (analgesic activity). In kind it is in vivo. The note with it: ip; for change in vivo at 15 mg/kg: Rattus norvegicus. The gist of the method: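 Test compounds were given i.p. as suspensions in 1% starch mucilage to SD rats (3 male, 3 female per group), vehicle as negative control. At 1 and 2 h post-dose, latency to nociceptive response (jumping, hind paw licking/shaking) on a 50 °C plate was recorded, 30 s cutoff.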

In series [7] the test system is Microsporum canis RCPF F 1643/1585. The series can be described thus: Antifungal susceptibility testing, M. canis. The note with it: Microsporum canis, RCPFF1643/1585, read-out: MIC for fungi strains inhibition, M. canis.
Description: (§3) The solvent was DMSO. […] In each test, a growth control and a sterility control were used.
Series [8] deals with Trichophyton rubrum RCPF F 1408. The series can be described thus: Antifungal susceptibility testing, T. rubrum. As to conditions: Trichophyton rubrum, RCPFF1408, read-out: MIC for fungi strains inhibition, T. rubrum.
Description: as §3
The subject of series [9] is Candida albicans RCPF Y 401/NCTC 885/653. As to the kind of experiment: Antifungal susceptibility testing, C. albicans. As to conditions: NCTC885, read-out: MIC for fungi strains inhibition, C. albicans.
Description: as §3
The subject of series [10] is Epidermophyton floccosum RCPF F 1659/17. As to the kind of experiment: Antifungal susceptibility testing, E. floccosum. The note with it: Epidermophyton floccosum, RCPFF1659/17, read-out: MIC for fungi strains inhibition, E. floccosum.
Description: as §3
Series [11] is described as follows: ABTS radical cation scavenging activity assay. As to conditions: mean ± SEM. The gist of the method:
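ABTS•+ (from 7 mM ABTS plus 2.45 mM persulfate) mixed with compound, 5 × 10^–7–4 × 10^–4 M, 1 h at 30 °C; absorbance decrease read at 734 nm. TEAC from slope ratio versus Trolox; IC50 as 50% radical reduction for compounds exceeding 60% reduction at 100 µM.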

Where [12] appears, read: hot plate test, rats, dose 15 mg/kg, 1 h, n.a. = inactive (p > 0.05), read-out: Latent Period Prolongation, % 1 h.
Setting [13] is: hot plate test, rats, dose 15 mg/kg, 2 h, n.a. = inactive (p > 0.05), read-out: Latent Period Prolongation, % 2 h.

Consider `COc1cccc2c1C(=O)c1c(O)c3c(c(O)c1C2=O)C[C@@](O)(C(=O)CO)C[C@@H]3O[C@H]1C[C@H](N)[C@H](O)[C@H](C)O1` [Doxorubicin, reference compound], for which the IC50 was found to be 4250 ± 550 nM with HeLa tumor cell line (MTT, n.a. = inactive) and 2.72 ± 0.26 µM in the series with human dermal fibroblasts (MTT, n.a. = inactive).

`CS(=O)(=O)c1ccc(N/N=C2\C(=O)N(c3ccccc3)N=C2C(F)(F)C(F)(F)F)cc1` [6h, (4Z)-4-(2-[4-(Methylsulfonyl)phenyl]hydrazinylidene)-5-(pentafluoroethyl)-2-phenyl-2,4-dihydro-3H-pyrazol-3-one]: the inhibition at 20 µM in series [1] amounted to 30.8 ± 2.7%; in series [2], 4.1 ± 0.8%; in series [3] it was 5.2 ± 0.9%. For the same molecule, in [4], the “ORAC-FL (TE, antioxidant activity in Trolox equivalents)” value (shortened to “ORAC-FL”) is recorded as “i.t.s”. Also, the MIC in series [5] was 250 µg/mL (≈ 543 µM); in [7], greater than 200 µg/mL; in series [8], greater than 200 µg/mL; in series [9] it was greater than 200 µg/mL; in series [10] it was greater than 200 µg/mL. The molecule also showed a survival at 14 days in series [6] of 100%. Further, the change in vivo at 15 mg/kg with Sprague-Dawley (SD) rats (setting [12]) is 80%; in the series with Sprague-Dawley (SD) rats (setting [13]), 98%.

In the case of `CC[C@@]1(O)C(=O)OCc2c1cc1n(c2=O)Cc2cc3ccccc3nc2-1` [Camptothecin, reference compound], the IC50 in the series with HeLa tumor cell line was 1080 ± 980 nM; in the series on human dermal fibroblasts, 5.38 ± 0.48 µM.

Regarding `O=C1/C(=N\Nc2ccc(Br)cc2)C(C(F)(F)F)=NN1c1ccccc1` [5k, (4Z)-4-[2-(4-Bromophenyl)hydrazinylidene]-2-phenyl-5-(trifluoromethyl)-2,4-dihydro-3H-pyrazol-3-one], the results for the inhibition at 20 µM in [1], in [2] and in series [3] were 23.2 ± 2%, 5.4 ± 0.9% and 6 ± 1.1%, respectively. The “ORAC-FL” value in series [4] is “i.t.s”. In addition, the MIC is 31.2 µg/mL (≈ 75.9 µM) in series [5]; greater than 200 µg/mL in series [7]; greater than 200 µg/mL in [8]; greater than 200 µg/mL in series [9]; greater than 200 µg/mL in series [10]. Besides, the survival at 14 days in series [6] stood at 100%. For the same molecule, the change in vivo at 15 mg/kg was 89% with Sprague-Dawley (SD) rats (setting [12]) and 76% in the series on Sprague-Dawley (SD) rats (setting [13]).

Take `O=C1/C(=N\Nc2ccccc2Cl)C(C(F)(F)F)=NN1c1ccccc1` [5i, (4Z)-4-[2-(2-Chlorophenyl)hydrazinylidene]-2-phenyl-5-(trifluoromethyl)-2,4-dihydro-3H-pyrazol-3-one]: the inhibition at 20 µM in series [1] is 23.2 ± 1.8%; in series [2], 6.3 ± 1%; in [3], 6.4 ± 1.3%. Further, the “ORAC-FL” value in series [4] is listed as “i.t.s”. The MIC in [5] is greater than 250 µg/mL; in [7], greater than 200 µg/mL; in series [8], greater than 200 µg/mL; in series [9], greater than 200 µg/mL; in [10], greater than 200 µg/mL. Besides, the survival at 14 days in [6] is 100%. Besides, the change in vivo at 15 mg/kg in the series on Sprague-Dawley (SD) rats (setting [12]) is 42%; in the series with Sprague-Dawley (SD) rats (setting [13]), 61%.

For the molecule `Cc1ccc(N/N=C2\C(=O)N(c3ccccc3)N=C2C(F)(F)C(F)(F)C(F)(F)C(F)(F)F)cc1` [8b, (4Z)-5-(Nonafluorobutyl)-4-[2-(4-methylphenyl)hydrazinylidene]-2-phenyl-2,4-dihydro-3H-pyrazol-3-one], the results for the inhibition at 20 µM in [1] and in series [2] were 12.1 ± 1.9% and 9 ± 1.4%, respectively. In series [11], the IC50 was greater than 400 µM. In addition, the “ABTS•+-scavenging activity, TEAC (trolox equivalent antioxidant capacity)” value in series [11] (n.a. = inactive) stood at 0.05 ± 0.03. The MIC in series [5] is greater than 250 µg/mL. Further, in [6], the survival at 14 days was determined as 100%. Also, the change in vivo at 15 mg/kg with Sprague-Dawley (SD) rats (1 h, read-out: Latent Period Prolongation, % 1 h) is 95.2%; in the series with Sprague-Dawley (SD) rats (2 h, read-out: Latent Period Prolongation, % 2 h), 125%.

For `O=C1/C(=N\Nc2ccc(Cl)cc2Cl)C(C(F)(F)C(F)(F)F)=NN1c1ccccc1` [6f, (4Z)-4-[2-(2,4-Dichlorophenyl)hydrazinylidene]-5-(pentafluoroethyl)-2-phenyl-2,4-dihydro-3H-pyrazol-3-one], the inhibition at 20 µM in series [1] amounted to 6.6 ± 0.9%; in series [2], 3.4 ± 0.7%; in [3] it was 4.3 ± 0.8%. Also, the MIC in series [5] was greater than 250 µg/mL; in [7], greater than 200 µg/mL; in series [8], greater than 200 µg/mL; in series [9], greater than 200 µg/mL; in series [10] it was 200 µg/mL (≈ 443 µM). Moreover, the survival at 14 days in series [6] came out at 100%. For the same molecule, in the series with Sprague-Dawley (SD) rats (SD rats, dose 15 mg/kg, 1 and 2 h), the “analgesic activity in the hot plate test” value was “inactive”.
